Results taken from US20190031618A1, “BENZIMIDAZOLE DERIVATIVES USEFUL AS CB-1 INVERSE AGONISTS” (Janssen Pharmaceutica NV, priority 2015, published 2019).

Tests used:
[1] = biological target: Human CB2R (Cannabinoid receptor 2) (Homo sapiens, UniProt P34972); test: CB-2 in vitro cAMP (HTRF) assay; format: cell-based; conditions: HEK cells, cAMP HTRF, 250 nM forskolin; mean where tested more than once; read-out: CB2 HEK_cAMP EC50
Text: (§1) CB1 and CB2 receptors are Gi-coupled GPCR. Activation of CB1 and CB2 receptors results in a decrease in cAMP production. An inverse agonist of the CB1 or CB2 receptor results in the opposite effect, an increase of cAMP production. The principle of this assay is based on HTRF® technology (Homogeneous Time-Resolved Fluorescence). The method is a competitive immunoassay between native cAMP produced by cells and the cAMP labeled with the fluorophore d2. The tracer binding is quantified by a Mab anti-cAMP labeled with Eu3+TBP-NHS Cryptate (supplied as part of the assay kit). The specific signal (i.e. energy transfer) is inversely proportional to the concentration of cAMP in the standard or sample.
Human CB1R (Cannabinoid receptor 1) was stably transfected in HEK-293 cells (DiscoveRx, cat: 93-0200C1). Human CB2R (Cannabinoid receptor 2) was stably transfected in HEK-293 cells (DiscoveRx, cat: 93-0201C1). Cell cultures were maintained in media: DMEM (Invitrogen Cat#12430-054) supplemented with 10% HI FBS (Invitrogen Cat#16140-071), 1% L-glutamine (Invitrogen Cat#25030-081), 0.2 mg/ml Hygromycin B (Invitrogen Cat#10687-010), 600 μg/mL G418 (Invitrogen Cat#10131-035), and 1× Penn/Strep (Invitrogen 15140-122). After cell expansion, aliquots were cryo-stored in media containing 5% DMSO (Pierce Cat#20684).
(§2) One day prior to experiments media was warmed to 37° C. and the cryo-stored cells were thawed in a 37° C. water bath. The cells were then added to media (10× volume) and the mixture was centrifuged at 1000 RPM for 5 min. The supernate was removed and the cells were re-suspended in media. A sample of the cell suspension was evaluated on a Cedex XS automated cell counter (Innovatis Systems) to determine viable cells/ml. Additional media was added to the cells to achieve a final cell density of 4E5 cells/mL. The cells were then plated into 384 well PDL white solid bottom plates (Greiner, Cat#781945) at 20 μL per well using a Multidrop (Thermo Scientific). Cells were removed from Row P (location of cAMP standards). Two columns of cells were plated into a clear bottom 384 well PDL coated plate (Greiner, Cat#781944) to view confluence the day of the assay. The cell plates were lidded and stored for 15 minutes in a hood, then transferred to an incubator (37° C., 5% CO2, 95% humidity) overnight.
DMSO was added to all wells of 384 well V bottom polystyrene plate (Greiner, Cat#781280) except to columns 1 and 13, rows O and P and wells M13-M23 and N13-N23. Test compounds (60 μL, 10 mM) were added to Column 1 and 13 (A1 through N1 and A13 through L13). Test compounds were serially diluted 1/3 by transferring and mixing 20 μl sample with 40 μL DMSO.
DMSO (40 μL) was added to wells of 384 well V bottom polystyrene plate: O2 through O11, M14 through M23, N14 through N23, and O14 through O23. AM630 (also known as [6-iodo-2-methyl-1-[2-(4-morpholinyl)ethyl]-1H-indol-3-yl](4-methoxyphenyl)-methanone, Cayman Chemical, Cat#10006974) (60 μL, 10 mM) was added to O1; and 1-(2,4-dichlorophenyl)-7-[(4-fluorophenyl)methylene]-4,5,6,7-tetrahydro-N-1-piperidinyl-1H-benzimidazole-3-carboxamide (60 μL, 10 mM) was added to N13. The control was serially diluted 1/3 by transferring and mixing 20 μl sample with 40 μL DMSO. This process resulted 11 doses per control, 10 mM to […].
Cells plated the day prior to the assay in clear bottom plates were viewed on an inverse microscope to ensure confluency in the range of 60-75%. […]

[2] = biological target: Human CB1R (Cannabinoid receptor 1) (Homo sapiens, UniProt P21554); test: CB-1 in vitro cAMP (HTRF) assay; format: cell-based; conditions: HEK cells, cAMP HTRF, 250 nM forskolin; mean where tested more than once; read-out: CB1 HEK_cAMP EC50
Chain of Human CB1R (Cannabinoid receptor 1) (P21554 whole entry): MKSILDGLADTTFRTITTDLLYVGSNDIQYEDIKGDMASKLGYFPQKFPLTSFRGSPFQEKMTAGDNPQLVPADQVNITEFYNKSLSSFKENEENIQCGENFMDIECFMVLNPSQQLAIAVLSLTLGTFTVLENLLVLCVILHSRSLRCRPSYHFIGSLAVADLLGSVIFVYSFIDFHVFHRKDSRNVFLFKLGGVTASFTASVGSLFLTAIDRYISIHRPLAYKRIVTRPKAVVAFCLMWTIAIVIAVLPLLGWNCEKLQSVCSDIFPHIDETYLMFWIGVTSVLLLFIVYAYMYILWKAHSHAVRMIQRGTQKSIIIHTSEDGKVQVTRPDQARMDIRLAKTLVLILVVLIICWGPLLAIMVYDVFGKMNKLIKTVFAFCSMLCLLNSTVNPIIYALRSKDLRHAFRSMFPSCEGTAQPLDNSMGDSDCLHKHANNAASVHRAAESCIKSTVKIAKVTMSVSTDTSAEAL
Text: as §1
Human CB1R (Cannabinoid receptor 1) was stably transfected in HEK-293 cells (DiscoveRx, cat: 93-0200C1). Human CB2R (Cannabinoid receptor 2) was stably transfected in HEK-293 cells (DiscoveRx, cat: 93-0201C1).
as §2, with “The cells were then plated into 384 well PDL white solid bottom plates (Greiner, Cat#781945) at 20 μL per well using a Multidrop (Thermo Scientific).” left out, “Two columns of cells were plated into a clear bottom 384 well PDL coated plate (Greiner, Cat#781944) to view confluence the day of the assay.” left out
Test compounds (60 μL, 10 mM) were added to Column 1 and 13 (A1 through N1 and A13 through L13). Test compounds were serially diluted 1/3 by transferring and mixing 20 μl sample with 40 μL DMSO.
DMSO (40 μL) was added to wells of 384 well V bottom polystyrene plate: O2 through O11, M14 through M23, N14 through N23, and O14 through O23. […] The control was serially diluted 1/3 by transferring and mixing 20 μl sample with 40 μL DMSO. This process resulted 11 doses per control, 10 mM to 0.5 μM.
Cells plated the day prior to the assay in clear bottom plates were viewed on an inverse microscope to ensure confluency in the range of 60-75%.
A FLEXDROP (Perkin Elmer) was cleaned with ethanol then water, and primed with Buffer 2. A 384 well V bottom polypropylene plate containing d2 labelled cAMP and a second 384 well V bottom polypropylene plate containing anti-cAMP was prepared (50 μl per well). Media as “dumped” from the cell plate and 30 μL Buffer 1 was added to each well using a Multidrop. The content of the cell plate was again “dumped” and 10 μL Buffer 2 was added to each well using a Flexdrop. […] The cell plate was mixed (Speed 6, Lab-Line Instruments Titer Plate Shaker) and centrifuged (1000 RPMs, 1 min). […] The cell plate was again mixed (speed 6) and centrifuged (1000 RPMs, 1 min). The cell plate was incubated for 30 minutes at room temperature (˜27° C.). The contents of row P were removed and the cAMP standard dilutions were added in duplicate to Row P (P1-12 and P13-24). After incubation, 6 μL d2 labelled cAMP and 6 μL of Anti-cAMP were added to all wells of the cell plate using a BioMek FX (Beckman Coulter). The cell plate was again mixed (speed 6) and centrifuged (1000 RPMs, 1 min) and was incubated for 60 minutes in the dark at room Temp (˜27° C.).
After this final incubation, the cell plate was read in HTRF mode (fluorescence at 665 nm and 620 nm) on an Envision plate Reader (Perkin Elmer). The Envision reader outputs a ratio of channel 1/channel 2 fluorescence×10,000 (Normalized signal (NS)). Amount of cAMP in nM was calculated for each well (based on NS) from a cAMP standard curve located on each plate (at P1-12 and P13-24). EC50 values were determined from a 4-point fit (Hill equation) of a single 11-point compound dosing. Hill slope was fixed at 1.0.

Chain of Human CB2R (Cannabinoid receptor 2) (P34972 whole entry): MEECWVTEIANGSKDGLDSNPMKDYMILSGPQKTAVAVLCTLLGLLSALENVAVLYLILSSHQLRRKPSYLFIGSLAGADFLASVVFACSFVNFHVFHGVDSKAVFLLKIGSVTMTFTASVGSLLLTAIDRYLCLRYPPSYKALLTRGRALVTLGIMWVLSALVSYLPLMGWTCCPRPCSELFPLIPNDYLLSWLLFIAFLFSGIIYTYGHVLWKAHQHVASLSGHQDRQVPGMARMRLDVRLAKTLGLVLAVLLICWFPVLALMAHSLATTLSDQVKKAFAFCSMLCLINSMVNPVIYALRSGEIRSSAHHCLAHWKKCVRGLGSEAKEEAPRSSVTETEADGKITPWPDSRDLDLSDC

EC50 [1]	EC50 [2]	Compound
9 µM	906 nM	Clc1ccc(C(c2ccc(Cl)cc2)c2ccc3ncn(C4Cc5ccccc5C4)c3c2)cc1 [Example 298]
0.7 µM	73 nM	O=C(O)c1ccc(S(=O)(=O)N2CCC(Cn3c(C4CC4)nc4ccc(C(c5ccc(Cl)cc5)c5ccc(Cl)cc5)cc43)CC2)cc1 [Example 15]
5.8 µM	67.9 nM	O=C(O)Cc1cccc(N2CCC(n3c(C4CC4)nc4ccc(C(c5ccc(Cl)cc5)c5ccc(Cl)cc5)cc43)CC2)c1 [Example 158]
7.82 µM	16.7 nM	O=C(O)c1cc(S(=O)(=O)N2CCC(n3c(C4CC4)nc4ccc(C(c5ccc(Cl)cc5)c5ccc(Cl)cc5)cc43)CC2)ccc1F [Example 226]
> 10 µM	10.5 nM	O=S(=O)(c1ccc(C(F)(F)F)cc1)N1CCC(n2c(C3CC3)nc3ccc(C(c4ccc(Cl)cc4)c4ccc(Cl)cc4)cc32)CC1 [Example 280]
> 10 µM	999 nM	CCOC(=O)N1CCC(n2c(N)nc3ccc(C(c4ccc(Cl)cc4)c4nccs4)cc32)CC1 (centres unmarked) [Example 440]
> 10 µM	21 nM	O=C(NCCCO)c1cccc(S(=O)(=O)N2CCC(n3c(C4CC4)nc4ccc(C(c5ccc(Cl)cc5)c5ccc(Cl)cc5)cc43)CC2)c1 [Example 191]
1.43 µM	> 8700 nM	Clc1ccc(Cn2cnc3ccc(C(c4ccc(Cl)cc4)c4nccs4)cc32)cc1 (centres unmarked) [Example 466]
> 10 µM	551 nM	CCOC(=O)c1nc2ccc(C(c3ccc(Cl)cc3)c3nccs3)cc2n1C1CCN(S(=O)(=O)C(F)(F)F)CC1 (centres unmarked) [Example 387]
> 10 µM	534 nM	CCc1nc2ccc(C(CO)(c3ccc(Cl)cc3)c3ccc(Cl)cc3)cc2n1C1CCN(S(=O)(=O)C(F)(F)F)CC1 [Example 244]
> 7.6 µM	164 nM	Cc1nc2ccc(C(c3ccc(Cl)cc3)c3nccs3)cc2n1Cc1ccc(Cl)cc1 (centres unmarked) [Example 463]
> 10 µM	163 nM	CCCc1nc2ccc(C(c3ccc(Cl)cc3)c3nccs3)cc2n1C1CCN(S(=O)(=O)C(F)(F)F)CC1 (centres unmarked) [Example 399]
3.88 µM	28.3 nM	O=C(O)c1ccc(-c2cccc(CCn3c(C4CC4)nc4ccc(C(c5ccc(Cl)cc5)c5ccc(Cl)cc5)cc43)c2)s1 [Example 6]
> 10 µM	2040 nM	NC(=O)c1ccc(S(=O)(=O)N2CCC(n3c(C4CC4)nc4ccc(C(CO)(c5ccc(Cl)cc5)c5ccc(Cl)cc5)cc43)CC2)cc1 [Example 227]
> 10 µM	972 nM	O=C(O)c1ccc(C(O)(c2ccc(Cl)cc2)c2ccc3nc(C4CC4)n(C4CCN(S(=O)(=O)C(F)(F)F)CC4)c3c2)cc1 (centres unmarked) [Example 150]
> 10 µM	7430 nM	O=S(=O)(N1CCC(n2c(CO)nc3ccc(C(O)(c4ccc(Cl)cc4)c4ccc(Cl)cc4)cc32)CC1)C(F)(F)F [Example 293]
> 10 µM	> 10000 nM	Clc1ccc(C(c2ccc3nc(-c4ccco4)n(-c4cccc(Cl)c4)c3c2)c2nccs2)cc1 (centres unmarked) [Example 377]
1.62 µM	40.2 nM	O=C(O)c1ccc(N[C@H]2CC[C@H](n3c(C4CC4)nc4ccc(C(c5ccc(Cl)cc5)c5ccc(Cl)cc5)cc43)CC2)cc1 [Example 30]
7.26 µM	87.6 nM	Oc1ccc(CCn2c(C3CC3)nc3ccc(C(c4ccc(Cl)cc4)c4ccc(Cl)cc4)cc32)cc1 [Example 37]
3.38 µM	190 nM	O=C(O)Cc1ccc(N2CCC(n3c(C4CC4)nc4ccc(C(c5ccc(Cl)cc5)c5ccc(Cl)cc5)cc43)CC2)cc1 [Example 157]
9.53 µM	16.1 nM	O=C(CCO)N1CCC(n2c(C3CC3)nc3ccc(C(c4ccc(Cl)cc4)c4ccc(Cl)cc4)cc32)CC1 [Example 234]
> 10 µM	8300 nM	O=C(O)c1ccc(S(=O)(=O)N2CCC(n3c(C4CC4)nc4ccc(C(CO)(c5ccc(Cl)cc5)c5ccc(Cl)cc5)cc43)CC2)cc1 [Example 228]

Compound	EC50 [1]	EC50 [2]
O=C(O)c1cccc(CN2CCC(n3c(C4CC4)nc4ccc(C(c5ccc(Cl)cc5)c5ccc(C(F)(F)F)cc5)cc43)CC2)c1 (centres unmarked) [Example 99]	4.74 µM	18.8 nM
NC(=O)c1ccc(CN2CCC(n3c(C4CC4)nc4ccc(C(c5ccc(Cl)cc5)c5ccc(Cl)cc5)cc43)CC2)cn1 [Example 105]	8 µM	5.1 nM
NC(=O)c1ccc(CN2CCC(n3c(C4CC4)nc4ccc(C(c5ccc(Cl)cc5)c5ccc(Cl)cc5)cc43)CC2)s1 [Example 126]	7.8 µM	4.2 nM
O=C(O)c1cccc(CN2CCC(n3c(C4CC4)nc4ccc(C(c5ccccc5)c5ccc(Cl)cc5)cc43)CC2)c1 (centres unmarked) [Example 101]	> 10 µM	28.5 nM
CC(c1cccc(C(=O)O)c1)N1CCC(n2c(C3CC3)nc3ccc(C(c4ccc(Cl)cc4)c4ccc(Cl)cc4)cc32)CC1 (single isomer, unassigned) [Example 48]	3.84 µM	3 nM
COc1ccccc1S(=O)(=O)N1CCC(n2c(C3CC3)nc3ccc(C(c4ccc(Cl)cc4)c4ccc(Cl)cc4)cc32)CC1 [Example 275]	> 10 µM	1.6 nM
